Measured values published in patent publication US12167742B2, “Nutritional composition comprising 6′SL and LNT in combination to improve the gastrointestinal barrier function” (SOCIETE DES PRODUITS NESTLE S.A., priority 2018, dated 2024).

Target: GPR35 (Homo sapiens, UniProt Q9HC97)
Test: PathHunter β-Arrestin assay, activation of GPR35 expressed in cultured cells (DiscoverX)
Format: cell-based
Conditions: for activation of GPR35: Example 2, HMO screening, highest concentration tested 10 mM; for EC50: dose-response by 3× dilutions from 10 mM, duplicate, β-arrestin recruitment
Method: Six human milk oligosaccharides (LNnT, LNT, 2′FL, diFL, 6′SL and 3′SL) were screened for their ability to activate the GPR35 receptor in an in vitro assay. The screening was conducted by DiscoverX (Fremont, Ca, USA) using the PathHunter β-Arresin assay. This assay monitors the activation of GPR35 expressed in cultured cells, using Enzyme Fragment Complementation with β-galactosidase (β-Gal) as the functional reporter. […] EA is fused to β-Arrestin and PK is fused to GPR35. When the GPR35 is activated and β-Arrestin is recruited to the receptor, PK and EA complementation occurs, restoring β-Gal activity, which is measured using chemiluminescent Detection Reagents.
The GPR35 cell line was expanded from frozen stocks and cultured according to standard procedures. Cells were seeded in a total volume of 20 μL into white walled, 384-well microplates and incubated at 37° C. for the appropriate time prior to testing. All testing was done in duplicate.
HMO samples were shipped to DiscoverX as concentrated stocks in Phosphate Buffered saline. On the test day, a 5× compound working intermediate was prepared in PBS. An amount of 5 μL of 5× sample was added to cells and incubated at room temperature for 3 to 5 hours.
Assay signal was generated through a single addition of 12.5 μL (50% v/v) of PathHunter Detection reagent cocktail, followed by one-hour incubation at room temperature. Microplates were read following signal generation with a PerkinElmer Envision™ instrument for chemiluminescent signal detection.
Zaprinast (which is known to be an activator of GPR35) was used as positive control.
Percentage activity was calculated using the following formula: % Activity=100%×(mean RLU of test sample−mean RLU of vehicle control)/(mean MAX control ligand−mean RLU of vehicle control).
Dose-responses were generated by iterative 3× dilutions of the highest concentration tested (10 mM).
The samples were diluted in 1×PBS (pH˜7) at 5× concentrations and sent to DiscoverX. The GPR35 activation assay was performed as described in Example 2.

GPR35, sequence (Q9HC97 whole entry): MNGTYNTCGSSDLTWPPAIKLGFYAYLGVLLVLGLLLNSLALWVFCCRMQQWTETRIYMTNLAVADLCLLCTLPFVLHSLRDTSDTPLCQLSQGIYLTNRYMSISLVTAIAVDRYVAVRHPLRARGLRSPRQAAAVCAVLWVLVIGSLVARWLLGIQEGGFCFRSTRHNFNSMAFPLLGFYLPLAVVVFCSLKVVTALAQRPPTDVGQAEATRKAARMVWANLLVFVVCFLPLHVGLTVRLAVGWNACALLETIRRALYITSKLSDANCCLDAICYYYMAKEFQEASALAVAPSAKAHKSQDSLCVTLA

activation of GPR35	EC50 [mM]	Structure (SMILES)
No activation	–	CC(=O)N[C@H]1[C@H](O[C@H]2[C@@H](O)[C@@H](CO)O[C@@H](O[C@H]3[C@H](O)[C@@H](O)C(O)O[C@@H]3CO)[C@@H]2O)O[C@H](CO)[C@@H](O[C@@H]2O[C@H](CO)[C@H](O)[C@H](O)[C@H]2O)[C@@H]1O (mixture of isomers) [LNnT, lacto-N-neotetraose]
No activation	–	CC(=O)N[C@H]1[C@H]([C@H](O)[C@H](O)CO)O[C@@](O[C@H]2[C@@H](O)[C@@H](CO)O[C@@H](O[C@H]3[C@H](O)[C@@H](O)C(O)O[C@@H]3CO)[C@@H]2O)(C(=O)O)C[C@@H]1O (some centres unmarked) [3′SL, 3′ sialyllactose]
–	6.5	CC(=O)N[C@H]1[C@H]([C@H](O)[C@H](O)CO)O[C@@](OC[C@H]2O[C@@H](O[C@H]3[C@H](O)[C@@H](O)[C@H](O)O[C@@H]3CO)[C@H](O)[C@@H](O)[C@H]2O)(C(=O)O)C[C@@H]1O [6′SL, 6′-sialyllactose]
–	4.5	CC(=O)N[C@H]1[C@H](O[C@H]2[C@@H](O)[C@@H](CO)O[C@@H](O[C@H]3[C@H](O)[C@@H](O)C(O)O[C@@H]3CO)[C@@H]2O)O[C@H](CO)[C@@H](O)[C@@H]1O[C@@H]1O[C@H](CO)[C@H](O)[C@H](O)[C@H]1O (some centres unmarked) [LNT, lacto-N-tetraose]
No activation	–	C[C@@H]1O[C@@H](O[C@H]2[C@H](O[C@H]3[C@H](O[C@@H]4O[C@@H](C)[C@@H](O)[C@@H](O)[C@@H]4O)[C@@H](O)C(O)O[C@@H]3CO)O[C@H](CO)[C@H](O)[C@@H]2O)[C@@H](O)[C@H](O)[C@@H]1O (some centres unmarked) [diFL, difucosyllactose]
